{"source": "patent US10174293B1", "about": "“Recombinant PB1 bacteriophages and uses thereof” (Charles Stark Draper Laboratory, Inc., priority 2018, dated 2019)", "tested_on": "drug sensitive strain", "assay": "Antibiotic susceptibility profiling with recombinant PB1 phages, drug sensitive strain", "assay_type": "cell-based, Pseudomonas aeruginosa", "description": "In some embodiments of the method, the differences in the reporter gene expression of the recombinant PB1 bacteriophage observed in the antibiotic treated sub-sample and the untreated control sub-sample is defined as μ.", "data": [{"substance": "gentamicin", "values": [{"measurement": "luciferase activity of antibiotic treated sample", "setting": "versus 'no drug' sample (FIG. 4B)", "result": "decline in luciferase activity"}, {"measurement": "μ value over time", "setting": "μ = difference in reporter expression, treated vs untreated (FIG. 4B)", "result": "steady increase in μ value over time"}]}]}
